These results are taken from US20090196930A1, “AEROSOLIZED NITRITE AND NITRIC OXIDE -DONATING COMPOUNDS AND USES THEREOF” (Aires Pharmaceuticals, Inc., priority 2007, published 2009).

Like-named read-outs stand apart in the source and are kept apart here.

For series [1] the following is noted: cited from earlier work.
In series [2] the test system is phenylepherine-induced contractions of aortic rings. Nature of the series: Isolated rat aortic ring relaxation.
Text: The isolated rat aortic ring model tests whether a drug solution reduces the phenylepherine-induced pre-contractions of aortic rings. Briefly, rat aorta was excised and cleansed of fat and adhering tissue. Vessels were then cut into individual ring segments (2-3 mm in width) and suspended from a force-displacement transducer in a tissue bath. […] A passive load of 2 grams was applied to all ring segments and maintained at this level throughout the experiments. At the beginning of each experiment, indomethacin-treated ring segments were depolarized with KCl (70 mM) to determine the maximal contractile capacity of the vessel. Rings were then washed extensively and allowed to equilibrate. For subsequent experiments, vessels were submaximally contracted (50% of KCl response) with phenylephrine (PE) (3×10^−8-10^−7 M).
Briefly, a rat aorta was excised and cleansed of fat and adhering tissue. Vessels were then cut into individual ring segments (2-3 mm in width) and suspended from a force-displacement transducer in a tissue bath. […] A passive load of 2 grams was applied to all ring segments and maintained at this level throughout the experiments. At the beginning of each experiment, indomethacin-treated ring segments were depolarized with KCl (70 mM) to determine the maximal contractile capacity of the vessel. Rings were then washed extensively and allowed to equilibrate. […]
The conditions of series [3]: NAL DPI formulation, monodose DPI device, in vitro; cited from earlier work.

Turning to `NC(=O)CN(CC(=O)O)CC(=O)O` [ADA, N-(2-ametamino)iminodiacetic acid], the pKa (in general, the negative logarithm of the acid dissociation constant) was 6.60 in series [1] (exemplary buffers of Table 1) and 6.6 in series [1] (exemplary buffers of Table 2).
With `CC(C)(CO)NCC(O)CS(=O)(=O)O` (centres unmarked) [AMPSO, N-(1,1-dimethyl-2-hydroxyethyl)-3-amino-2-hydroxypropane-sulfonic acid], in series [1] (exemplary buffers of Table 2), the pKa is on record as 9.0.
As for `O=S(=O)(O)CCN(CCO)CCO` [BES, N,N-Bis(2-hydroxyethyl)-2-aminoethanesulfonic acid], the pKa in series [1] (exemplary buffers of Table 2) is given as 7.1.
Regarding `OCC(CO)(CO)NCCCNC(CO)(CO)CO` [BIS-TRIS Propane, 1,3-Bis[tris(hydroxymethyl)methylamino]propane], the pKa in series [1] (exemplary buffers of Table 2) is listed as 6.8.
Turning to `O=S(=O)(O)CCNC1CCCCC1` [CHES, 2-(cyclohexylamino)ethanesulfonic acid], the pKa in series [1] (exemplary buffers of Table 2) is recorded as 9.3.
On to `O=S(=O)(O)CCCN1CCN(CCO)CC1` [EPPS, N-(2-hydroxyethyl)piperazine-N′-(3-propanesulfonic acid)], for which the pKa in series [1] (exemplary buffers of Table 2) is 8.0.
In the case of `O=S(=O)(O)CCN1CCN(CCS(=O)(=O)O)CC1` [PIPES, Piperazine-N,N′-bis(2-ethanesulfonic acid)], the figures for the pKa in series [1] (exemplary buffers of Table 1) and in series [1] (exemplary buffers of Table 2) were 6.76 and 6.8, respectively.
Take `CCCc1nn(C)c2c(=O)[nH]c(-c3cc(S(=O)(=O)N4CCN(C)CC4)ccc3OCC)nc12` [Sildenafil]: in series [2] (50 nM sildenafil), the “reduction in phenylepherine-induced aortic constriction” value was approximately 50%. In addition, the EC50 in series [2] (relaxation of phenylephrine-contracted rat aortic rings, read-out: ED50 (the source's name)) was found to be 50 nM.
As for `O=S(=O)(O)CC(O)CNC(CO)(CO)CO` (centres unmarked) [TAPSO, 2-hydroxy-3-[tris(hydroxymethyl)methylamino]-1-propanesulfonic acid], the pKa in series [1] (exemplary buffers of Table 2) was 7.6.
For the molecule `O=C(O)CNC(CO)(CO)CO` [Tricine], the pKa in series [1] (exemplary buffers of Table 2) is reported as 8.1.
L-lysine-N-acetylcysteinate [NAL]: the “fine particle fraction (FPF) of the nominal dose” value in series [3] is “at least 30%”.
